# Assay results as given in patent US10294236B2, “Compounds as rearranged during transfection (RET) inhibitors” (GLAXOSMITHKLINE INTELLECTUAL PROPERTY DEVELOPMENT LIMITED, priority 2014, dated 2019).
# Counter-ions that a name gives are not always drawn.
# Molecular target: T1, Human RET kinase cytoplasmic domain (Homo sapiens, UniProt P07949)
# T1 construct: made in house
# T1 sequence (P07949 658-1114): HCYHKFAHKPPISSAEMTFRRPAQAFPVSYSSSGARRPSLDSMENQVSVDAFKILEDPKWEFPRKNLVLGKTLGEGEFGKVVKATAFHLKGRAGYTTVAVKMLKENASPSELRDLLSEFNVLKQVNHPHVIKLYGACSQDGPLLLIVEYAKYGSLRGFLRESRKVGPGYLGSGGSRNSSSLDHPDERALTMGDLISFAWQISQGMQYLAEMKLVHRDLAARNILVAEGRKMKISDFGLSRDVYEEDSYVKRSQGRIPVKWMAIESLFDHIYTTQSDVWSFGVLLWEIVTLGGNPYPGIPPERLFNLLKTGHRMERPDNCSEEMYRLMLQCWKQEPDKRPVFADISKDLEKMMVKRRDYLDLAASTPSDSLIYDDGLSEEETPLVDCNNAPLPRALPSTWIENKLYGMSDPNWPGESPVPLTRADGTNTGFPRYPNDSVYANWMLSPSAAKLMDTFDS
# Experiment: RET kinase enzymatic assay
# Format: biochemical
# Protocol: GST-RET was purified using glutathione sepharose chromatography. The RET kinase enzymatic assay was performed in a total volume of 10 uL with increasing concentrations of RET kinase inhibitor as a singlet in a 384 well format as follows: RET inhibitor compound plates are prepared by adding 100 nL of RET inhibitor at different concentrations to a 384-well plate. 5 μL/well of a 2× enzyme mix (50 mM HEPES (4-(2-hydroxyethyl)-1-piperazineethanesulfonic acid); 1 mM CHAPS (3-[(3-cholamidopropyl)dimethylammonio]-1-propanesulfonate); 0.1 mg/mL BSA (bovine serum albumin); 1 mM DTT (dithiothreitol); 0.2 nM RET kinase) was added to the 384-well plate and incubated for 30 minutes at 23° C. 5 µL/well of a 2× substrate mix (50 mM HEPES; 1 mM CHAPS; 0.1 mg/mL BSA; 20 μM adenosine triphosphate; 20 mM MgCl2 and 1 μM biotinylated peptide substrate) was added and incubated for 1 hour at 23° C. […] IC50s were fitted using GraphPad Prism to a sigmoidal dose response.
row,IC50 [nM],SMILES
1,< 100,"CCOc1cc(-c2ncc(NC(=O)Nc3ccc(Cl)c(C(F)(F)F)c3)c(C)n2)c[nH]c1=O [Example 60, 1-(4-Chloro-3-(trifluoromethyl)phenyl)-3-(2-(5-ethoxy-6-oxo-1,6-dihydropyridin-3-yl)-4-methylpyrimidin-5-yl)urea]"
2,< 100,CCCOc1cc(-c2ccc(NC(=O)Nc3ccc(OC4(C)COC4)c(C(F)(F)F)c3)c(F)c2)c[nH]c1=O [Example 138]
3,< 100,CCOc1cc(-c2ccc(NC(=O)Nc3ccc(F)c(C(F)(F)F)c3)c(F)c2)c[nH]c1=O [Example 156]
4,< 100,CC1(Oc2ccc(NC(=O)Nc3ccc(-c4c[nH]c(=O)cc4OC(F)F)cc3F)cc2C(F)(F)F)COC1 [Example 126]
5,< 100,"Cc1cc(-c2ccc(NC(=O)Nc3ccc(OC4(C)COC4)c(C(F)(F)F)c3)c(F)c2)c[nH]c1=O [Example 7, 1-(2-fluoro-4-(5-methyl-6-oxo-1,6-dihydropyridin-3-yl)phenyl)-3-(4-((3-methyloxetan-3-yl)oxy)-3-(trifluoromethyl)phenyl)urea]"
6,< 100,O=C(Nc1ccc(F)c(C(F)(F)F)c1)Nc1ccc(-c2c[nH]c(=O)c(OCCCF)c2)cc1F [Example 107]
7,< 100,CCOc1cc(-c2cc(C)c(NC(=O)Nc3ccc(OC4(C)COC4)c(C(F)(F)F)c3)cn2)c[nH]c1=O [Example 97]
8,< 100,CCOc1cc(-c2ccc(NC(=O)Nc3ccc(OCC(C)O)c(C(F)(F)F)c3)c(F)c2)c[nH]c1=O (stereo not shown) [Example 145]
9,< 100,CC(C)Oc1ccc(NC(=O)Nc2ccc(-c3c[nH]c(=O)c(OCCCF)c3)cc2F)cc1C(F)(F)F [Example 121]
10,< 100,CCOc1cc(-c2ccc(NC(=O)Nc3ccc(CO)c(C(F)(F)F)c3)c(F)c2)c[nH]c1=O [Example 132]
11,< 100,CCOc1cc(-c2ccc(NC(=O)Nc3cnc(C(C)(C)O)c(C(F)(F)F)c3)c(F)c2)c[nH]c1=O [Example 89]
12,100 to 500,CCOc1ccc(NC(=O)Nc2ccc(-c3ccc(=O)n(CC)c3)cc2F)cc1C(F)(F)F [Example 113]
13,< 100,CCOc1cc(-c2ccc(NC(=O)Nc3ccc(OC4(C)COC4)c(C(F)(F)F)c3)cc2F)c[nH]c1=O [Example 133]
14,< 100,"CCOc1cc(-c2ncc(NC(=O)Nc3ccc(C(C)(C)CN(C)C)c(C(F)(F)F)c3)c(C)n2)c[nH]c1=O [Example 73, 1-(4-(1-(Dimethylamino)-2-methylpropan-2-yl)-3-(trifluoromethyl)phenyl)-3-(2-(5-ethoxy-6-oxo-1,6-dihydropyridin-3-yl)-4-methylpyrimidin-5-yl)urea dihydrochloride]"
15,< 100,CCOc1cc(-c2ccc(NC(=O)Nc3ccc(OC4(C)CCOC4)c(C(F)(F)F)c3)c(F)c2)c[nH]c1=O (stereo not shown) [Example 167]
16,< 100,CCOc1cc(-c2ccc(NC(=O)Nc3ccc(C(C)O)c(C(F)(F)F)c3)c(F)c2)c[nH]c1=O (stereo not shown) [Example 116]
17,< 100,"CC1(Oc2ccc(NC(=O)Nc3ccc(-c4c[nH]c(=O)c(OC5CC5)c4)cc3F)cc2C(F)(F)F)COC1 [Example 20, 1-(4-(5-Cyclopropoxy-6-oxo-1,6-dihydropyridin-3-yl)-2-fluorophenyl)-3-(4-((3-methyloxetan-3-yl)oxy)-3-(trifluoromethyl)phenyl)urea]"
18,< 100,CCOc1cc(-c2ccc(NC(=O)Nc3ccc(OC(C)(C)COC)c(C(F)(F)F)c3)c(F)c2)c[nH]c1=O [Example 159]
19,< 100,CCOCc1ccc(NC(=O)Nc2ccc(-c3c[nH]c(=O)c(OCC)c3)cc2F)cc1C(F)(F)F [Example 151]
20,< 100,CC(C)(O)c1ccc(NC(=O)Nc2ccc(-c3c[nH]c(=O)c4ccccc34)cc2F)cc1C(F)(F)F [Example 75]

# The remaining lines, values behind:
row,SMILES,IC50 [nM]
1,CCOc1cc(-c2ccc(NC(=O)Nc3ccc(OC4(C)COC4)c(C(F)(F)F)c3)cc2)c[nH]c1=O [Example 140],< 100
2,"CCOc1cc(-c2ncc(NC(=O)Nc3ccc(CC4(C)COC4)c(C(F)(F)F)c3)c(C)n2)c[nH]c1=O [Example 13, 1-(2-(5-Ethoxy-6-oxo-1,6-dihydropyridin-3-yl)-4-methylpyrimidin-5-yl)-3-(4-((3-methyloxetan-3-yl)methyl)-3-(trifluoromethyl)phenyl)urea]",< 100
3,CCOc1cc(-c2ccc(NC(=O)Nc3ccc(OC(C)(C)CO)c(C(F)(F)F)c3)c(F)c2)c[nH]c1=O [Example 118],< 100
4,CCOc1cc(=O)[nH]cc1-c1ccc(NC(=O)Nc2ccc(OC3(C)COC3)c(C(F)F)c2)c(F)c1 [Example 124],< 100
5,"CCOc1cc(-c2ncc(NC(=O)Nc3ccc(C(C)(C)C#N)c(C(F)(F)F)c3)c(C)n2)c[nH]c1=O [Example 23, 1-(4-(2-Cyanopropan-2-yl)-3-(trifluoromethyl)phenyl)-3-(2-(5-ethoxy-6-oxo-1,6-dihydropyridin-3-yl)-4-methylpyrimidin-5-yl)urea]",< 100
6,"CCOc1cc(-c2ncc(NC(=O)Nc3cnc(C(C)(C)O)c(C(F)(F)F)c3)c(C)n2)c[nH]c1=O [Example 29, 1-(2-(5-Ethoxy-6-oxo-1,6-dihydropyridin-3-yl)-4-methylpyrimidin-5-yl)-3-(6-(2-hydroxypropan-2-yl)-5-(trifluoromethyl)pyridin-3-yl)urea]",< 100
7,CCOc1cc(-c2ccc(NC(=O)Nc3ccc(CN4CC[C@H](F)C4)c(C(F)(F)F)c3)c(F)c2)c[nH]c1=O [Example 154],< 100
8,CCOc1cc(-c2ccc(NC(=O)Nc3ccc(OC4(C)COC4)c(C(F)(F)F)c3)c(N(C)C)n2)c[nH]c1=O [Example 112],100 to 500
9,"CCOc1cc(-c2ncc(NC(=O)Nc3cc(C(C)(C)C(F)(F)F)on3)c(C)n2)c[nH]c1=O [Example 15, 1-(2-(5-Ethoxy-6-oxo-1,6-dihydropyridin-3-yl)-4-methylpyrimidin-5-yl)-3-(5-(1,1,1-trifluoro-2-methylpropan-2-yl)isoxazol-3-yl)urea]",< 100
10,Cc1cc(=O)[nH]cc1-c1ccc(NC(=O)Nc2ccc(OC3(C)COC3)c(C(F)(F)F)c2)c(F)c1 [Example 168],< 100
11,CCOc1cc(-c2ccc(NC(=O)Nc3ccc(OC(C)(C)C)c(C(F)(F)F)c3)cc2)c[nH]c1=O [Example 79],< 100
12,CCOc1cc(-c2ccc(NC(=O)Nc3cc(C(F)(F)F)ccc3F)c(F)c2)c[nH]c1=O [Example 78],< 100
13,"CCOc1cc(-c2ncc(NC(=O)Nc3cccc(C(F)(F)F)c3)c(C)n2)c[nH]c1=O [Example 42, 1-(2-(5-Ethoxy-6-oxo-1,6-dihydropyridin-3-yl)-4-methylpyrimidin-5-yl)-3-(3-(trifluoromethyl)phenyl)urea]",< 100
14,"CCOc1ccc(NC(=O)Nc2ccc(-c3c[nH]c(=O)c4c3CCC4)cc2F)cc1C(F)(F)F [Example 3, 1-(4-Ethoxy-3-(trifluoromethyl)phenyl)-3-(2-fluoro-4-(1-oxo-2,5,6,7-tetrahydro-1H-cyclopenta[c]pyridin-4-yl)phenyl)urea]",< 100
15,"CCOc1cc(-c2ccc(NC(=O)Nc3ccc(OC(C)C)c(C(F)(F)F)c3)nc2C)c[nH]c1=O [Example 8, 1-(5′-Ethoxy-2-methyl-6′-oxo-1′,6′-dihydro-[3,3′-bipyridin]-6-yl)-3-(4-isopropoxy-3-(trifluoromethyl)phenyl)urea]",< 100
16,"CCOc1[nH]c(=O)ccc1-c1ccc(NC(=O)Nc2ccc(OC3(C)COC3)c(C(F)(F)F)c2)c(F)c1 [Example 35, 1-(4-(2-Ethoxy-6-oxo-1,6-dihydropyridin-3-yl)-2-fluorophenyl)-3-(4-((3-methyloxetan-3-yl)oxy)-3-(trifluoromethyl)phenyl)urea]",< 100
17,"CCOc1cc(Oc2ccc(NC(=O)Nc3ccc(OC4(C)COC4)c(C(F)(F)F)c3)cc2)c[nH]c1=O [Example 49, 1-(4-((5-Ethoxy-6-oxo-1,6-dihydropyridin-3-yl)oxy)phenyl)-3-(4-((3-methyloxetan-3-yl)oxy)-3-(trifluoromethyl)phenyl)urea]",< 100
18,CCOc1cc(-c2ccc(NC(=O)Nc3ccc(Cl)c(C(F)(F)F)c3)c(F)c2)c[nH]c1=O [Example 152],< 100
19,CCOc1cc(-c2ccc(NC(=O)Nc3ccc(OC4(C)COC4)c(C(F)(F)F)c3)c(Cl)n2)c[nH]c1=O [Example 87],< 100
20,CCOc1cc(-c2ccc(NC(=O)Nc3ccc(OC(C)C)c(C(F)(F)F)c3)c(F)c2)c[nH]c1=O [Example 82],< 100
21,CCOc1cc(-c2ccc(NC(=O)Nc3ccc(OC4(C)CCN(C(C)C)C4)c(C(F)(F)F)c3)c(F)c2)c[nH]c1=O (stereo not shown) [Example 85],< 100
22,CCOc1cc(-c2cc(F)c(NC(=O)Nc3ccc(OC4(C)COC4)c(C(F)(F)F)c3)c(F)c2)c[nH]c1=O [Example 90],< 100
23,CCOc1cc(-c2ccc(NC(=O)Nc3ccc(OC4(C)COC4)c(C(F)(F)F)c3)cn2)c[nH]c1=O [Example 106],< 100
